Experimental data: patent publication US20260226493A1, “HERBICIDE RESISTANT PLANTS” (SYNGENTA CROP PROTECTION AG, priority 2023, published 2026)

Assays:
Test in all cases: BIO3-BIO1 mutant enzyme activity in the presence of herbicide, percentage inhibition (fluorometric DAPA assay)
Type in all cases: biochemical
Settings in all cases: read-out: percentage inhibition
[1] = biological target: T1, Arabidopsis thaliana BIO3-BIO1 (BioDA) mutants (Arabidopsis thaliana, UniProt B0F481, A609W)
T1 construct: with the predicted N-terminal mitochondrial transit peptide removed; 6xHis-tag (N); thrombin cleavage site (N); made in house; host or cells: E. coli BL21 (DE3) bioA
Text: (§1) A pet-24 plasmid containing a DNA sequence encoding each identified variant mutant of BIO3-BIO1 derived from Arabidopsis thaliana from example 5 above, as shown in Table 13 below and as shown in full in SEQ ID NOs: 15 to 155, codon-optimised for expression in E. coli, with an N-terminal 6×His-tag and thrombin cleavage site and under control of a T7 promoter, and was synthesised by Twist Bioscience, in a similar manner to SEQ ID NO:311. These plasmids were then expressed in E. coli BL21 (DE3) bioA with 50 μg/mL kanamycin and 25 μg/mL chloramphenicol selection. Overnight cultures grown at 37° C. were used to inoculate 8×500 mL AIM in shake flasks at a ratio of 1:100. Cultures were grown at 37° C., 200 rpm for 3.5 hours and then overnight at 20° C. Cells were harvested by centrifugation for 30 minutes at 10 000 g. Cells were stored at −80° C. until extraction. 30 g of cell pellet from was thawed in 120 mL of IMAC buffer A (20 mM HEPES pH7.5, 25 mM imidazole, 500 mM sodium chloride, 0.15 mM pyridoxal phosphate, 0.5 mM TCEP, 1× complete Protease Inhibitor Tablet (Roche)). The resuspension was passed through a cell disrupter at 18 000 PSI and centrifuged at 50 000 g for 25 minutes at 4° C. The His-tagged BIO3-BIO1 protein was purified from the extract supernatant on an AKTA avant chromatography system (Cytiva) using a HisTrap FF column and eluted in IMAC buffer B ((20 mM HEPES pH7.5, 500 mM imidazole, 500 mM sodium chloride, 0.15 mM pyridoxal phosphate, 0.5 mM TCEP) followed by SEC using a HiLoad 26/60 Superdex200 column in SEC buffer (25 mM HEPES pH7.5, 150 mM sodium chloride, 0.15 mM pyridoxal phosphate, 0.5 mM TCEP). Protein concentration was measured and calculated using the absorbance at 280 nm. Extracts were diluted 1 in 4 and 10 uL was analysed by SDS PAGE.
(§2) To measure BIO3-BIO1 mutant enzyme activity in the presence of herbicide, herbicides were incubated with 20 μL of enzyme mix (100 mM EPPS pH 8.6, 0.1 mM pyridoxal phosphate, 0.1 mg/mL BSA, 50 nM BIO3-BIO1 enzyme) for 10 minutes at 20° C. in a well of a 96-well half-area black plate, followed by the addition of 20 μL of substrate mix (final concentration of 100 mM EPPS pH 8.6, 0.1 mM pyridoxal phosphate, 0.1 mg/mL BSA, 100 μM spermidine, 20 μM KAPA, 100 mM NaCO3) and further incubation for 75 minutes at 20° C. The reaction was terminated by the addition of 50 μL of derivatisation mix (final concentration of 250 mM borate NaOH pH 9.4, 3.6 mM o-phthalaldehyde, 7 mM β-mercaptoethanol, 17% (v/v) ethanol, 3.6% (v/v) methanol). The fluorescent product produced by the reaction of DAPA with o-phthalaldehyde and 7 mM β-mercaptoethanol was measured at 470 nm after excitation at 410 nm. The percentage inhibition was calculated as the activity in the presence of one of three concentrations of each herbicide compound A to M (note that the compounds labelled as A to M are identified hereinabove in the relevant section of the description) as a percentage of the activity in DMSO (Table 12 and 13). The percentage activity versus WT was also calculated and is shown in Table 13 and 14 (NT indicates mutation not tested in table 13, note that these mutations are tested at different compound concentrations for compounds L, M and C, and the results are shown in table 14).

[2] = biological target: T2, Arabidopsis thaliana BIO3-BIO1 (BioDA) mutants (Arabidopsis thaliana, UniProt B0F481, C388T)
T2 construct: with the predicted N-terminal mitochondrial transit peptide removed; 6xHis-tag (N); thrombin cleavage site (N); made in house; host or cells: E. coli BL21 (DE3) bioA
Text: as §1, §2

[3] = biological target: T3, Arabidopsis thaliana BIO3-BIO1 (BioDA) mutants (Arabidopsis thaliana, UniProt B0F481, F348D)
T3 construct: with the predicted N-terminal mitochondrial transit peptide removed; 6xHis-tag (N); thrombin cleavage site (N); made in house; host or cells: E. coli BL21 (DE3) bioA
Text: as §1, §2

[4] = biological target: T4, Arabidopsis thaliana BIO3-BIO1 (BioDA) mutants (Arabidopsis thaliana, UniProt B0F481, G608E)
T4 construct: with the predicted N-terminal mitochondrial transit peptide removed; 6xHis-tag (N); thrombin cleavage site (N); made in house; host or cells: E. coli BL21 (DE3) bioA
Text: as §1, §2

[5] = biological target: T5, Arabidopsis thaliana BIO3-BIO1 (BioDA) mutants (Arabidopsis thaliana, UniProt B0F481, G700A)
T5 construct: with the predicted N-terminal mitochondrial transit peptide removed; 6xHis-tag (N); thrombin cleavage site (N); made in house; host or cells: E. coli BL21 (DE3) bioA
Text: as §1, §2

[6] = biological target: T6, Arabidopsis thaliana BIO3-BIO1 (BioDA) mutants (Arabidopsis thaliana, UniProt B0F481, P421E)
T6 construct: with the predicted N-terminal mitochondrial transit peptide removed; 6xHis-tag (N); thrombin cleavage site (N); made in house; host or cells: E. coli BL21 (DE3) bioA
Text: as §1, §2

[7] = biological target: T7, Arabidopsis thaliana BIO3-BIO1 (BioDA) mutants (Arabidopsis thaliana, UniProt B0F481, P508T)
T7 construct: with the predicted N-terminal mitochondrial transit peptide removed; 6xHis-tag (N); thrombin cleavage site (N); made in house; host or cells: E. coli BL21 (DE3) bioA
Text: as §1, §2

[8] = biological target: T8, Arabidopsis thaliana BIO3-BIO1 (BioDA) mutants (Arabidopsis thaliana, UniProt B0F481, R797Q)
T8 construct: with the predicted N-terminal mitochondrial transit peptide removed; 6xHis-tag (N); thrombin cleavage site (N); made in house; host or cells: E. coli BL21 (DE3) bioA
Text: as §1, §2

[9] = biological target: T9, Arabidopsis thaliana BIO3-BIO1 (BioDA) mutants (Arabidopsis thaliana, UniProt B0F481, S509F)
T9 construct: with the predicted N-terminal mitochondrial transit peptide removed; 6xHis-tag (N); thrombin cleavage site (N); made in house; host or cells: E. coli BL21 (DE3) bioA
Text: as §1, §2

[10] = biological target: T10, Arabidopsis thaliana BIO3-BIO1 (BioDA) mutants (Arabidopsis thaliana, UniProt B0F481, S509Y)
T10 construct: with the predicted N-terminal mitochondrial transit peptide removed; 6xHis-tag (N); thrombin cleavage site (N); made in house; host or cells: E. coli BL21 (DE3) bioA
Text: as §1, §2

[11] = biological target: T11, Arabidopsis thaliana BIO3-BIO1 (BioDA) mutants (Arabidopsis thaliana, UniProt B0F481, V354L)
T11 construct: with the predicted N-terminal mitochondrial transit peptide removed; 6xHis-tag (N); thrombin cleavage site (N); made in house; host or cells: E. coli BL21 (DE3) bioA
Text: as §1, §2

[12] = biological target: T12, Arabidopsis thaliana BIO3-BIO1 (BioDA) mutants (Arabidopsis thaliana, UniProt B0F481, Y511W)
T12 construct: with the predicted N-terminal mitochondrial transit peptide removed; 6xHis-tag (N); thrombin cleavage site (N); made in house; host or cells: E. coli BL21 (DE3) bioA
Text: as §1, §2

T11 sequence (B0F481 23-833 V354L): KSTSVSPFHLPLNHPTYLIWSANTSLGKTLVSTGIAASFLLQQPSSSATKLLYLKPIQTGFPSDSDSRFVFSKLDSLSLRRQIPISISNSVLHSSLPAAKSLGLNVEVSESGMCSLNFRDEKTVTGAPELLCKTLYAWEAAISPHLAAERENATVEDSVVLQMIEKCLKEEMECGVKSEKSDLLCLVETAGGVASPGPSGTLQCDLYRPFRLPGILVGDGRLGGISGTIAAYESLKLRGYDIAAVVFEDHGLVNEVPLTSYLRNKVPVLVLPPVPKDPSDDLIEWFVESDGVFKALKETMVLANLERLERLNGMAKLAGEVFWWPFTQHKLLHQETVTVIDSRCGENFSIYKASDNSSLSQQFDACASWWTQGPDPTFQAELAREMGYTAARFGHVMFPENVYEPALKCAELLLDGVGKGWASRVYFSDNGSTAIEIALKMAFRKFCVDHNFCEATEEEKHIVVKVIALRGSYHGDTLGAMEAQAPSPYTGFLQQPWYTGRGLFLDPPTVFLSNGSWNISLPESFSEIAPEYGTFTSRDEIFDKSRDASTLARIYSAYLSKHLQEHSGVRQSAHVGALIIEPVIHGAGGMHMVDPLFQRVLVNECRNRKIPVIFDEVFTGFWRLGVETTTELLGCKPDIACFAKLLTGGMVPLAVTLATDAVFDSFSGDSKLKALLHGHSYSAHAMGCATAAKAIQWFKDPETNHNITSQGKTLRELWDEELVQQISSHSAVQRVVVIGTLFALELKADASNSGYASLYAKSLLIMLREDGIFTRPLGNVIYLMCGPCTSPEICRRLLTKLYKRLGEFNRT
T1 sequence (B0F481 23-833 A609W): as the sequence (B0F481 23-833 V354L) above, with L332V, A587W counted along it
T5 sequence (B0F481 23-833 G700A): as the sequence (B0F481 23-833 V354L) above, with L332V, G678A counted along it
T6 sequence (B0F481 23-833 P421E): as the sequence (B0F481 23-833 V354L) above, with L332V, P399E counted along it
T10 sequence (B0F481 23-833 S509Y): as the sequence (B0F481 23-833 V354L) above, with L332V, S487Y counted along it
T3 sequence (B0F481 23-833 F348D): as the sequence (B0F481 23-833 V354L) above, with F326D, L332V counted along it
T2 sequence (B0F481 23-833 C388T): as the sequence (B0F481 23-833 V354L) above, with L332V, C366T counted along it
T8 sequence (B0F481 23-833 R797Q): as the sequence (B0F481 23-833 V354L) above, with L332V, R775Q counted along it
T4 sequence (B0F481 23-833 G608E): as the sequence (B0F481 23-833 V354L) above, with L332V, G586E counted along it
T7 sequence (B0F481 23-833 P508T): as the sequence (B0F481 23-833 V354L) above, with L332V, P486T counted along it
T12 sequence (B0F481 23-833 Y511W): as the sequence (B0F481 23-833 V354L) above, with L332V, Y489W counted along it
T9 sequence (B0F481 23-833 S509F): as the sequence (B0F481 23-833 V354L) above, with L332V, S487F counted along it

CCOC(=O)c1nn(-c2ccc3c(c2)OC(F)(F)C(F)(F)O3)c2cccc(C(C)=O)c2c1=O [Compound A, ethyl 5-acetyl-4-oxo-1-(2,2,3,3-tetrafluoro-1,4-benzodioxin-6-yl)cinnoline-3-carboxylate]
inhibition at 1 µM [1]: 34%
inhibition at 1 µM [2]: 31%
inhibition at 1 µM [3]: 0%
inhibition at 1 µM [4]: 56%
inhibition at 1 µM [5]: 0%
inhibition at 1 µM [6]: 0%
inhibition at 1 µM [7]: 55%
inhibition at 1 µM [8]: 35%
inhibition at 1 µM [9]: 6%
inhibition at 1 µM [10]: 3%
inhibition at 1 µM [11]: 1%
inhibition at 1 µM [12]: 57%

CCn1c(C)c(-c2ccc(F)cc2F)c(=O)c(C(=O)O)c1-c1ccc(Cl)c(Cl)c1 [Compound C, 2-(3,4-dichlorophenyl)-5-(2,4-difluorophenyl)-1-ethyl-6-methyl-4-oxo-pyridine-3-carboxylic acid]
inhibition at 0.2 µM [1]: 21%
inhibition at 1 µM [1]: 33%
inhibition at 5 µM [1]: 38%
inhibition at 0.2 µM [2]: 49%
inhibition at 1 µM [2]: 78%
inhibition at 5 µM [2]: 95%
inhibition at 0.2 µM [3]: 8%
inhibition at 1 µM [3]: 13%
inhibition at 5 µM [3]: 0%
inhibition at 0.2 µM [4]: 25%
inhibition at 1 µM [4]: 52%
inhibition at 5 µM [4]: 81%
inhibition at 0.2 µM [5]: 4%
inhibition at 1 µM [5]: 7%
inhibition at 5 µM [5]: 28%
inhibition at 0.2 µM [6]: 37%
inhibition at 1 µM [6]: 31%
inhibition at 5 µM [6]: 0%
inhibition at 0.2 µM [7]: 23%
inhibition at 1 µM [7]: 54%
inhibition at 5 µM [7]: 82%
inhibition at 0.2 µM [8]: 7%
inhibition at 1 µM [8]: 32%
inhibition at 5 µM [8]: 52%
inhibition at 0.2 µM [9]: 24%
inhibition at 1 µM [9]: 82%
inhibition at 5 µM [9]: 98%
inhibition at 0.2 µM [10]: 37%
inhibition at 1 µM [10]: 76%
inhibition at 5 µM [10]: 95%
inhibition at 0.2 µM [11]: 0%
inhibition at 1 µM [11]: 32%
inhibition at 5 µM [11]: 86%
inhibition at 0.2 µM [12]: 41%
inhibition at 1 µM [12]: 85%
inhibition at 5 µM [12]: 97%
